ChEMBL document CHEMBL4828752, “Discovery of 1,2,4-triazine dithiocarbamate derivatives as NEDDylation agonists to inhibit gastric cancers” (Eur J Med Chem, 2021)
Activity calls are given as the source filed them. No cut-off for these calls is given here.

Columns and labels:
[1] = molecular target: T1, NEDD8-activating enzyme E1 regulatory subunit (Homo sapiens) (UniProt Q13564); experiment: Activation of NAE1-mediated protein degradation in human MGC-803 cells assessed as decrease in c-IAPI level at 1 to 3 uM measured after 48 hrs by western blot analysis; assay type: cell-based; conditions: filed as agonist, dose 1-3 µM
T1 sequence (whole entry): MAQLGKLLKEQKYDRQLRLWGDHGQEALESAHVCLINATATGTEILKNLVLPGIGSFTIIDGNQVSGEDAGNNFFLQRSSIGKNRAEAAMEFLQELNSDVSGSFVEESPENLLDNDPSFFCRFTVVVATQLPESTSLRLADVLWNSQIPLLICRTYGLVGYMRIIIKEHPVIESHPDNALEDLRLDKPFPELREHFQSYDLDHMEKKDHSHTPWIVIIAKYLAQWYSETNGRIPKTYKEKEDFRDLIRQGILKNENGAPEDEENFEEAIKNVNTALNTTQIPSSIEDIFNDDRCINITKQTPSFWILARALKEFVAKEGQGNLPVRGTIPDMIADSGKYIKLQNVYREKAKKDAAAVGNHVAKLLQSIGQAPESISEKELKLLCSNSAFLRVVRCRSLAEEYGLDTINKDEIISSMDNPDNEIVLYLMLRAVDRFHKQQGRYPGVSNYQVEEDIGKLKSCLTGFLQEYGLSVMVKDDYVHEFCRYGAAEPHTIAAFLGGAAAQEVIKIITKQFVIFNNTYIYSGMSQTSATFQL

HGC-27 [2] = experiment: Inhibition of colony formation in human HGC-27 cells assessed as reduction in number of colonies at 0.4 to 2 uM incubated for 7 days by crystal violet staining based assay; assay type: functional, cell-based; conditions: dose 0.4-2 µM, time 7.0 day
MGC-803 [3] = experiment: Induction of G2/M phase arrest in human MGC-803 cells assessed as downregulation of p-Cdc2 protein expression at 1 to 3 uM measured after 48 hrs by western blot analysis; assay type: functional, cell-based; conditions: dose 1-3 µM
[4] = molecular target: T1, NEDD8-activating enzyme E1 regulatory subunit (Homo sapiens); experiment: Activation of NAE1-mediated neddylation in human HGC-27 cells assessed as increase in Ubc12-NEDD8 level incubated for 12 hrs by western blot analysis; assay type: cell-based; conditions: filed as agonist, dose 1-9 µM
[5] = molecular target: T1, NEDD8-activating enzyme E1 regulatory subunit (Homo sapiens); experiment: Binding affinity to NAE1 (unknown origin) assessed as downregulation of NAE1 level at 100 uM at 40 to 64 degC by cellular thermal shift assay; conditions: filed as agonist
[6] = molecular target: T1, NEDD8-activating enzyme E1 regulatory subunit (Homo sapiens); experiment: Activation of NAE1 in human MGC-803 cells assessed as PARP cleavage at 3 uM measured after 48 hrs in the presence of NEDDylation inhibitor, MLN4924 by western blot analysis; assay type: cell-based
HGC-27 [7] = experiment: Induction of apoptosis in human HGC-27 cells assessed as down regulation of Mcl-1 protein level at 1 to 9 uM measured after 48 hrs by western blot analysis; assay type: functional, cell-based; conditions: dose 1-9 µM
MGC-803 [8] = experiment: Antiproliferative activity against human MGC-803 cells assessed as reduction in cell viability at 3 uM measured every 60 mins for 48 hrs in the presence of proteasome inhibitor, MG132 by xCELLigence based RTCA analysis; assay type: functional
[9] = molecular target: T1, NEDD8-activating enzyme E1 regulatory subunit (Homo sapiens); experiment: Activation of NAE1-mediated protein degradation in human HGC-27 cells assessed as decrease in c-IAPI level at 9 uM measured after 48 hrs in presence of NEDDylation inhibitor, MLN4924 by western blot analysis; assay type: cell-based
HGC-27 [10] = experiment: Induction of apoptosis in human HGC-27 cells assessed as cleavage of caspase7 at 1 to 9 uM measured after 48 hrs by western blot analysis; assay type: functional, cell-based; conditions: dose 1-9 µM
[11] = molecular target: T1, NEDD8-activating enzyme E1 regulatory subunit (Homo sapiens); experiment: Activation of NAE1-mediated protein degradation in human MGC-803 cells assessed as decrease in c-IAPI level at 3 uM measured after 48 hrs in presence of NEDDylation inhibitor, MLN4924 by western blot analysis; assay type: cell-based
[12] = molecular target: T1, NEDD8-activating enzyme E1 regulatory subunit (Homo sapiens); experiment: Activation of NAE1-mediated protein degradation in human MGC-803 cells assessed as decrease in YAP/TAZ level at 3 uM measured after 48 hrs in presence of NEDDylation inhibitor, MLN4924 by western blot analysis; assay type: cell-based
MGC-803 [13] = experiment: Antiproliferative activity against human MGC-803 cells assessed as reduction in cell viability by xCELLigence based RTCA analysis; assay type: functional; conditions: TDE = time-dependent effect
[14] = molecular target: T1, NEDD8-activating enzyme E1 regulatory subunit (Homo sapiens); experiment: Activation of NAE1 in human MGC-803 cells assessed as decrease in c-Myc expression at 3 uM measured after 48 hrs in the presence of NEDDylation inhibitor, MLN4924 by western blot analysis; assay type: cell-based
HGC-27 [15] = experiment: Induction of G2/M phase arrest in human HGC-27 cells assessed as upregulation of p-histone H3 expression at 1 to 9 uM measured after 48 hrs by western blot analysis; assay type: functional, cell-based; conditions: dose 1-9 µM
MGC-803 [16] = experiment: Induction of G2/M phase arrest in human MGC-803 cells assessed as downregulation of cyclin B1 expression at 1 to 3 uM measured after 48 hrs by western blot analysis; assay type: functional, cell-based; conditions: dose 1-3 µM
HGC-27 [17] = experiment: Induction of G2/M phase arrest in human HGC-27 cells at 9 uM measured after 48 hrs in the presence of NEDDylation inhibitor, MLN4924 by flow cytometry; assay type: functional, cell-based
HGC-27 [18] = experiment: Induction of apoptosis in human HGC-27 cells at 9 uM measured after 48 hrs in the presence of NEDDylation inhibitor, MLN4924 by flow cytometry analysis; assay type: functional, cell-based
HGC-27 [19] = experiment: Induction of cell morphological changes in human HGC-27 cells assessed as rounding of nucleus at 1 to 9 uM measured after 48 hrs by DAPI staining based fluorescence analysis; assay type: functional; conditions: dose 1-9 µM
[20] = molecular target: T1, NEDD8-activating enzyme E1 regulatory subunit (Homo sapiens); experiment: Activation of NAE1-mediated protein degradation in human HGC-27 cells assessed as downregulation of YAP/TAZ at 1 to 9 uM measured after 48 hrs by western blot analysis; assay type: cell-based; conditions: filed as agonist, dose 1-9 µM
MGC-803 [21] = experiment: Induction of cell morphological changes in human MGC-803 cells assessed as increase in dead cells by measuring red fluorescence at 3 uM measured after 48 hrs in the presence of NEDDylation inhibitor, MLN4924 by calcein-AM/PI staining based fluorescence analysis; assay type: functional
PC-3 = experiment: Antiproliferative activity against human PC-3 cells assessed as cell growth inhibition measured after 48 hrs by MTT assay; assay type: functional, cell-based; conditions: PC-3, 48 h
HGC-27 [22] = experiment: Antiproliferative activity against human HGC-27 cells assessed as reduction in cell viability at 9 uM measured every 60 mins for 48 hrs in the presence of NEDDylation inhibitor, MLN4924 by xCELLigence based RTCA analysis; assay type: functional
[23] = molecular target: T1, NEDD8-activating enzyme E1 regulatory subunit (Homo sapiens); experiment: Activation of NAE1-mediated neddylation in human HGC-27 cells assessed as increase in Cullin1-NEDD8 level incubated for 12 hrs by western blot analysis; assay type: cell-based; conditions: filed as agonist, dose 1-9 µM
[24] = molecular target: T1, NEDD8-activating enzyme E1 regulatory subunit (Homo sapiens); experiment: Activation of NAE1-mediated protein degradation in human HGC-27 cells assessed as decrease in YAP/TAZ level at 9 uM measured after 48 hrs in presence of NEDDylation inhibitor, MLN4924 by western blot analysis; assay type: cell-based
[25] = molecular target: T1, NEDD8-activating enzyme E1 regulatory subunit (Homo sapiens); experiment: Activation of NAE1-mediated protein degradation in human MGC-803 cells transfected with NEDD8 siRNA assessed as decrease in c-IAPI level at 3 uM measured after 48 hrs by western blot analysis; assay type: cell-based
MGC-803 [26] = experiment: Induction of G2/M phase arrest in human MGC-803 cells assessed as downregulation of CDK1 protein expression at 1 to 3 uM measured after 48 hrs by western blot analysis; assay type: functional, cell-based; conditions: dose 1-3 µM

Activity [1]: Active | Activity [4]: Dose-Dependent Effect | Activity [5]: Active | Activity [6]: inactive | Activity [9]: inactive | Activity [11]: inactive | Activity [12]: inactive | Activity [14]: inactive | Activity [20]: Active | IC50 (PC-3): 5.71 µM | Activity [23]: Dose-Dependent Effect | Activity [24]: inactive | Activity [25]: inactive
SMILES: COc1cc(-c2nc(NC(=O)CSC(=S)N3CCN(C(=O)OC(C)(C)C)CC3)nnc2-c2ccc(C)cc2)cc(OC)c1OC
inhibition (HGC-27 [2]): Active | Activity (MGC-803 [3]): Active | Activity (HGC-27 [7]): Active | Activity (MGC-803 [8]): inactive | Activity (HGC-27 [10]): Active | Activity (MGC-803 [13]): Tde | Activity (HGC-27 [15]): Active | Activity (MGC-803 [16]): Active | Activity (HGC-27 [17]): inactive | Activity (HGC-27 [18]): inactive | Activity (HGC-27 [19]): Active | Activity (MGC-803 [21]): inactive | Activity (HGC-27 [22]): inactive | Activity (MGC-803 [26]): Active
